Source: patent US8008291B2 (Mimetica Pty Ltd, priority 2008, dated 2011)

Biological target: T1, human MC5R (hMC5R) (Homo sapiens, UniProt P33032)
T1 construct: purchased Perkin Elmer RBXMC5M400UA
Experiment: Human MC5R radioligand binding assay (membranes, [125I] NDP-MSH displacement)
Conditions: hMC5R binding; tested as trifluoroacetate or hydrochloride salts, or free bases; read-out: MC5R radioligand IC50
Summary of the method: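 Displacement of [125I]NDP-MSH (radioiodinated in house, HPLC-purified) from hMC5R membranes by test compound measured after 1 hr incubation at 37° C.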

T1 sequence (P33032 whole entry): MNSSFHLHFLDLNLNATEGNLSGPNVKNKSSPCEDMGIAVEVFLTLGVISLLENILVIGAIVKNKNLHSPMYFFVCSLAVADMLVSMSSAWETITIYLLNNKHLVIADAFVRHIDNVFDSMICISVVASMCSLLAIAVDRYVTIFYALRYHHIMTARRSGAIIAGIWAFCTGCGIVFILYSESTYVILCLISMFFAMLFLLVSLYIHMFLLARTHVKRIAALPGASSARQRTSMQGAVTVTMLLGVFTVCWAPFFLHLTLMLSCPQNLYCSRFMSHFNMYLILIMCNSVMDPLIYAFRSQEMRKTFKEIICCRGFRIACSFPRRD

Row | SMILES | IC50
1 | O=C(NC[C@@H]1CCN(CC(c2ccccc2)c2ccccc2)C(=O)[C@H](CCN2CCCCC2)N1)c1ccc2ccccc2c1 [Compound 368, N-(((3S,5S)-1-(2,2-diphenylethyl)-2-oxo-3-(2-(piperidin-1-yl)ethyl)-1,4-diazepan-5-yl)methyl)-2-naphthamide] | < 100 nM
2 | CC[C@H](CN1CC[C@@H](CNC(=O)/C=C/c2ccc(Cl)cc2)N[C@@H](CCNC(C)C)C1=O)c1ccccc1 [Compound 408, (E)-3-(4-chlorophenyl)-N-(((3S,5S)-3-(2-(isopropylamino)ethyl)-2-oxo-1-((S)-2-phenylbutyl)-1,4-diazepan-5-yl)methyl)acrylamide] | < 100 nM
3 | N=C(N)NCCC[C@@H]1N[C@H](CNC(=O)c2ccc3ccccc3c2)CCN(CC2CCCCC2)C1=O [Compound 201, N-(((3S,5S)-1-(cyclohexylmethyl)-3-(3-guanidinopropyl)-2-oxo-1,4-diazepan-5-yl)methyl)-2-naphthamide] | < 1000 nM
4 | N=C(N)NCCC[C@@H]1N[C@H](CNC(=O)c2ccc3ccccc3c2)CCN(CC(C(=O)Nc2ccccc2)c2ccccc2)C1=O (stereo partly drawn) [Compound 344, N-(((3S,5S)-3-(3-guanidinopropyl)-2-oxo-1-(3-oxo-2-phenyl-3-(phenylamino)propyl)-1,4-diazepan-5-yl)methyl)-2-naphthamide] | < 10000 nM
5 | O=C(/C=C/c1ccc(Cl)cc1)NC[C@@H]1CCN(CC(c2ccccc2)c2ccccc2)C(=O)[C@H](CCN2CCOCC2)N1 [Compound 403, (E)-3-(4-chlorophenyl)-N-(((3S,5S)-1-(2,2-diphenylethyl)-3-(2-morpholinoethyl)-2-oxo-1,4-diazepan-5-yl)methyl)acrylamide] | < 100 nM
6 | COc1c(C(=O)NC[C@@H]2CCN(Cc3cc(Cl)cc(Cl)c3)C(=O)[C@H](CCN3CCCCC3)N2)ccc2ccccc12 [Compound 531, N-(((3S,5S)-1-(3,5-dichlorobenzyl)-2-oxo-3-(2-(piperidin-1-yl)ethyl)-1,4-diazepan-5-yl)methyl)-1-methoxy-2-naphthamide] | < 100 nM
7 | NCCC[C@@H]1N[C@H](CNC(=O)C=Cc2ccccc2)CCN(CC(c2ccccc2)c2ccccc2)C1=O [Compound 212, N-(((3S,5S)-3-(3-aminopropyl)-1-(2,2-diphenylethyl)-2-oxo-1,4-diazepan-5-yl)methyl)cinnamamide] | < 1000 nM
8 | CC[C@@H](CN1CC[C@@H](CNC(=O)c2ccc3cc(Cl)ccc3c2)N[C@@H](CCN2CCCCC2)C1=O)c1ccsc1 [Compound 510, 6-chloro-N-(((3S,5S)-2-oxo-3-(2-(piperidin-1-yl)ethyl)-1-((R)-2-(thiophen-3-yl)butyl)-1,4-diazepan-5-yl)methyl)-2-naphthamide] | < 100 nM
9 | O=C(NC[C@@H]1CCN(CC(c2ccccc2)c2ccccc2)C(=O)[C@H](CN2CCCCC2)N1)c1ccc2ccccc2c1 [Compound 275, N-(((3S,5S)-1-(2,2-diphenylethyl)-2-oxo-3-(piperidin-1-ylmethyl)-1,4-diazepan-5-yl)methyl)-2-naphthamide] | < 100 nM
10 | NCCCC[C@@H]1N[C@H](CNC(=O)Cc2c[nH]c3ccccc23)CCN(Cc2cccc3ccccc23)C1=O [Compound 120, N-(((3S,5S)-3-(4-aminobutyl)-1-(naphthalen-1-ylmethyl)-2-oxo-1,4-diazepan-5-yl)methyl)-2-(1H-indol-3-yl)acetamide] | < 10000 nM
11 | C[C@@H](C(c1ccccc1)c1ccccc1)N1CC[C@@H](CNC(=O)c2ccc3ccccc3c2)N[C@@H](CCCNC(=N)N)C1=O [Compound 203, N-(((3S,5S)-1-((S)-1,1-diphenylpropan-2-yl)-3-(3-guanidinopropyl)-2-oxo-1,4-diazepan-5-yl)methyl)-2-naphthamide] | < 100 nM
12 | N=C(N)NCCC[C@@H]1N[C@H](CNC(=O)c2ccc3ccccc3c2)CCN(CCC2CCCCC2)C1=O [Compound 242, N-(((3S,5S)-1-(2-cyclohexylethyl)-3-(3-guanidinopropyl)-2-oxo-1,4-diazepan-5-yl)methyl)-2-naphthamide] | < 1000 nM
13 | CC[C@H](CN1CC[C@@H](CNC(=O)c2ccc(Cl)c(Cl)c2)N[C@@H](CCN2CCCC(F)(F)C2)C1=O)c1ccccc1 [Compound 484, 3,4-dichloro-N-(((3S,5S)-3-(2-(3,3-difluoropiperidin-1-yl)ethyl)-2-oxo-1-((S)-2-phenylbutyl)-1,4-diazepan-5-yl)methyl)benzamide] | < 1000 nM
14 | CNC(=N)NCCC[C@@H]1N[C@H](CNC(=O)[C@H]2Cc3ccccc3CN2)CCN(CC(c2ccccc2)c2ccccc2)C1=O [Compound 130, (R)—N-(((3S,5S)-1-(2,2-diphenylethyl)-3-(3-(3-methylguanidino)propyl)-2-oxo-1,4-diazepan-5-yl)methyl)-1,2,3,4-tetrahydroisoquinoline-3-carboxamide] | < 10000 nM
15 | NCCC[C@@H]1N[C@H](CNC(=O)c2ccc3ccccc3c2)CCN(Cc2cccc(Cl)c2Cl)C1=O [Compound 318, N-(((3S,5S)-3-(3-aminopropyl)-1-(2,3-dichlorobenzyl)-2-oxo-1,4-diazepan-5-yl)methyl)-2-naphthamide] | < 10000 nM
16 | N=C(N)NCCC[C@@H]1N[C@H](CNC(=O)[C@@H]2Cc3ccccc3CN2)CCN(CC(c2ccccc2)c2ccccc2)C1=O [Compound 131, (S)—N-(((3S,5S)-1-(2,2-diphenylethyl)-3-(3-guanidinopropyl)-2-oxo-1,4-diazepan-5-yl)methyl)-1,2,3,4-tetrahydroisoquinoline-3-carboxamide] | < 10000 nM
17 | CC[C@H](CN1CCC(CNC(=O)c2ccc3cc(Cl)ccc3c2)NC(C2CCN(C(C)C)CC2)C1=O)c1ccccc1 (stereo partly drawn) [Compound 525, (S)-6-chloro-N-((3-(1-isopropylpiperidin-4-yl)-2-oxo-1-(2-phenylbutyl)-1,4-diazepan-5-yl)methyl)-2-naphthamide] | < 100 nM
18 | CC(C)NCC[C@@H]1N[C@H](CNC(=O)/C=C/c2ccc(Cl)cc2)CCN(CC(c2ccccc2)c2ccccc2)C1=O [Compound 381, (E)-3-(4-chlorophenyl)-N-(((3S,5S)-1-(2,2-diphenylethyl)-3-(2-(isopropylamino)ethyl)-2-oxo-1,4-diazepan-5-yl)methyl)acrylamide] | < 100 nM
19 | NCCC[C@@H]1N[C@H](CNC(=O)c2ccc3ccccc3c2)CCN(Cc2cccc(Cl)c2)C1=O [Compound 341, N-(((3S,5S)-3-(3-aminopropyl)-1-(3-chlorobenzyl)-2-oxo-1,4-diazepan-5-yl)methyl)-2-naphthamide] | < 10000 nM
20 | COc1ccc(C(CN2CC[C@@H](CNC(=O)c3ccc4ccccc4c3)N[C@@H](CCCNC(=N)N)C2=O)c2ccc(OC)cc2)cc1 [Compound 244, N-(((3S,5S)-1-(2,2-bis(4-methoxyphenyl)ethyl)-3-(3-guanidinopropyl)-2-oxo-1,4-diazepan-5-yl)methyl)-2-naphthamide] | < 10000 nM
21 | Cc1ccc(C)n1CC[C@@H]1N[C@H](CNC(=O)/C=C/c2ccc(Cl)cc2)CCN(CC(c2ccccc2)c2ccccc2)C1=O [Compound 404, (E)-3-(4-chlorophenyl)-N-(((3S,5S)-3-(2-(2,5-dimethyl-1 H-pyrrol-1-yl)ethyl)-1-(2,2-diphenylethyl)-2-oxo-1,4-diazepan-5-yl)methyl)acrylamide] | < 1000 nM
22 | CC[C@H](CN1CC[C@@H](CNC(=O)c2ccc(Cl)c(Cl)c2)N[C@@H](CCN)C1=O)c1ccccc1 [Compound 464, N-(((3S,5S)-3-(2-aminoethyl)-2-oxo-1-((S)-2-phenylbutyl)-1,4-diazepan-5-yl)methyl)-3,4-dichlorobenzamide] | < 1000 nM
23 | CC[C@H](CN1CC[C@@H](CNC(=O)c2ccc(Cl)c(Cl)c2)N[C@@H](CCN2CCC(C)CC2)C1=O)c1ccccc1 [Compound 446, 3,4-dichloro-N-(((3S,5S)-3-(2-(4-methylpiperidin-1-yl)ethyl)-2-oxo-1-((S)-2-phenylbutyl)-1,4-diazepan-5-yl)methyl)benzamide] | < 10 nM
24 | N=C(N)NCCC[C@@H]1N[C@H](CNC(=O)c2ccc3ccccc3c2)CCN(Cc2cccc3ccccc23)C1=O [Compound 263, N-(((3S,5S)-3-(3-guanidinopropyl)-1-(naphthalen-1-ylmethyl)-2-oxo-1,4-diazepan-5-yl)methyl)-2-naphthamide] | < 10000 nM
25 | CCC[C@@H](CN1CC[C@@H](CNC(=O)c2ccc3ccccc3c2)N[C@@H](CCN2CCCCC2)C1=O)c1ccccc1 [Compound 432, N-(((3S,5S)-2-oxo-1-((R)-2-phenylpentyl)-3-(2-(piperidin-1-yl)ethyl)-1,4-diazepan-5-yl)methyl)-2-naphthamide] | < 100 nM
26 | CCC(CC)CN1CC[C@@H](CNC(=O)c2ccc3cc(Cl)ccc3c2)N[C@@H](CCN)C1=O [Compound 370, N-(((3S,5S)-3-(2-aminoethyl)-1-(2-ethylbutyl)-2-oxo-1,4-diazepan-5-yl)methyl)-6-chloro-2-naphthamide] | < 1000 nM
27 | N=C(N)NCCC[C@@H]1N[C@H](CNC(=O)c2ccc3ccccc3c2)CCN(C[C@@H](NC(=O)c2ccccc2)c2ccccc2)C1=O [Compound 287, N-(((3S,5S)-1-((S)-2-benzamido-2-phenylethyl)-3-(3-guanidinopropyl)-2-oxo-1,4-diazepan-5-yl)methyl)-2-naphthamide] | < 1000 nM
28 | N=C(N)NCCC[C@@H]1N[C@H](CNC(=O)c2ccc3ccccc3c2)CCN(C[C@H](NC(=O)c2ccccc2)c2ccccc2)C1=O [Compound 288, N-(((3S,5S)-1-((R)-2-benzamido-2-phenylethyl)-3-(3-guanidinopropyl)-2-oxo-1,4-diazepan-5-yl)methyl)-2-naphthamide] | < 10000 nM
29 | CC[C@H](CN1CC[C@@H](CNC(=O)c2ccc3cc(OC)ccc3c2)N[C@@H](CCN2CCCCC2)C1=O)c1ccccc1 [Compound 537, 6-methoxy-N-(((3S,5S)-2-oxo-1-((S)-2-phenylbutyl)-3-(2-(piperidin-1-yl)ethyl)-1,4-diazepan-5-yl)methyl)-2-naphthamide] | < 100 nM
30 | N=C(N)NCCC[C@@H]1N[C@H](CNC(=O)Cc2c[nH]c3ccccc23)CCN(CC2CCCCC2)C1=O [Compound 481, N-(((3S,5S)-1-(cyclohexylmethyl)-3-(3-guanidinopropyl)-2-oxo-1,4-diazepan-5-yl)methyl)-2-(1 H-indol-3-yl)acetamide] | < 100 nM
